Assay results taken from ChEMBL document CHEMBL5614382, “Discovery of a new 1-(phenylsulfonyl)-1H-indole derivative targeting the EphA2 receptor with antiproliferative activity on U251 glioblastoma cell line” (Eur J Med Chem, 2024).
The source made the active and inactive calls. The calls are words filed in the database; no cut-off is given here.

Key:
[1] = test system: U-251; assay: Antiproliferative activity against human U-251 cells assessed as increase in cell death at 30 uM measured after 48 hrs by MTT assay; format: functional, cell-based
[2] = molecular target: Ephrin type-A receptor 2 (Homo sapiens) (UniProt P29317); assay: Induction of EphA2 phosphorylation in human U-251 cells; format: cell-based
[3] = test system: U-251; assay: Antiproliferative activity against human U-251 cells assessed as reduction in cell viability at 30 uM measured after 72 hrs by Celltiter-glo ATP based assay; format: functional
[4] = test system: LOUCY; assay: Antiproliferative activity against human LOUCY cells assessed as reduction in cell viability at 30 uM measured after 72 hrs by Celltiter-glo ATP based assay; format: functional

Ephrin type-A receptor 2 (Homo sapiens), sequence (P29317 whole entry): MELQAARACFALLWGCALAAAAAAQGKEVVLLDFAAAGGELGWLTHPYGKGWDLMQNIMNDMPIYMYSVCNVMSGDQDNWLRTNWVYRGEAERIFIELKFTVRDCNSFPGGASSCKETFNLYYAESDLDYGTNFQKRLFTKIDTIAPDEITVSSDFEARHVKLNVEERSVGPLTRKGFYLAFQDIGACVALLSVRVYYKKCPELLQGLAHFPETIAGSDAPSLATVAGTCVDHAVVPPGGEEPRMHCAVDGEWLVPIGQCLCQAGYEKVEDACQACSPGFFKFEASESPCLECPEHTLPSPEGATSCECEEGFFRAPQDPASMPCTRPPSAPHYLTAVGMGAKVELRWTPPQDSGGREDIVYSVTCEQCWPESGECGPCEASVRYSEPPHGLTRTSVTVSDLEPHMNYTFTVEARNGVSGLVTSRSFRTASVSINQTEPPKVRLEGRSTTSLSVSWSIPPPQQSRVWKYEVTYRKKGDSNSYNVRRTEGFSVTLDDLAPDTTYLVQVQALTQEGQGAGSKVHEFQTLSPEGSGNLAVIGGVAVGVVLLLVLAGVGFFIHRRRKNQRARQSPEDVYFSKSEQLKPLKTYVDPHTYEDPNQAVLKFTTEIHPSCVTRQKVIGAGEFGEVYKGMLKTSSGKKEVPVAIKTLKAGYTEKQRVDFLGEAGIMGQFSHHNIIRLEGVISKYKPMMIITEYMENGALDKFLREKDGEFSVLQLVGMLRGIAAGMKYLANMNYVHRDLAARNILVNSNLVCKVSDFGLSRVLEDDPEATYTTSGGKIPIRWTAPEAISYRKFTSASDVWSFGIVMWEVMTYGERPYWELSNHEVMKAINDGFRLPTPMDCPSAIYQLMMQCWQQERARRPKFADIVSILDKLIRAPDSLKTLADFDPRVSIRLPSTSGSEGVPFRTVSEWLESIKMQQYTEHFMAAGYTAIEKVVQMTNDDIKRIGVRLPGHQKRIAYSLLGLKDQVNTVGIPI

C[C@H](CCC(=O)N[C@H](CC(=O)O)Cc1cn(S(=O)(=O)c2ccc(C(F)(F)F)cc2)c2ccccc12)[C@H]1CC[C@H]2[C@@H]3CC=C4C[C@@H](O)CC[C@]4(C)[C@H]3CC[C@]12C
Activity [1]: Active
Activity [2]: inactive
Activity [3]: Active
Activity [4]: Active
